What all share (format): in vivo
The test system of test [1] is yellow fever mosquito (Aedes aegypti). Description: whole plant or invertebrate. The conditions noted are these: 48 h, larval mortality visually assessed after 2 days, read-out: mortality in comparison with untreated controls. The procedure: For evaluating control of yellow fever mosquito (Aedes aegypti) the test unit consisted of 96-well-microtiter plates containing 200 μl of tap water per well and 5-15 freshly hatched A. aegypti larvae.
The active compounds or mixtures were formulated using a solution containing 75% (v/v) water and 25% (v/v) DMSO. Different concentrations of formulated compounds or mixtures were sprayed onto the insect diet at 2.5 μl using a custom built micro atomizer, at two replications.
For experimental mixtures in these tests identical volumes of both mixing partners at the desired concentrations respectively, were mixed together.
After application, microtiter plates were incubated at 28+1° C., 80+5% RH for 2 days. Larval mortality was then visually assessed.

Test [2] has as its system Southern armyworm (Spodoptera eridania), 2nd instar larvae. Description: Action on southern armyworm (Spodoptera eridania), 2nd instar larvae, sprayed lima bean plants. The conditions noted are these: 96 h, 2nd instar larvae on lima bean plants, 4 days after treatment, read-out: mortality in comparison with untreated controls. The procedure: The active compounds were formulated by a Tecan liquid handler in 100% cyclohexanone as a 10,000 ppm solution supplied in tubes. The 10,000 ppm solution was serially diluted in 100% cyclohexanone to make interim solutions. These served as stock solutions for which final dilutions were made by the Tecan in 50% acetone:50% water (v/v) into 10 or 20 ml glass vials. A nonionic surfactant (Kinetic®) was included in the solution at a volume of 0.01% (v/v). The vials were then inserted into an automated electrostatic sprayer equipped with an atomizing nozzle for application to plants/insects.
Lima bean plants (variety Sieve) were grown 2 plants to a pot and selected for treatment at the 1st true leaf stage. Test solutions were sprayed onto the foliage by an automated electrostatic plant sprayer equipped with an atomizing spray nozzle. The plants were dried in the sprayer fume hood and then removed from the sprayer. Each pot was placed into perforated plastic bags with a zip closure. About 10 to 11 armyworm larvae were placed into the bag and the bags zipped closed. Test plants were maintained in a growth room at about 25° C. and about 20-40% relative humidity for 4 days, avoiding direct exposure to fluorescent light (24 hour photoperiod) to prevent trapping of heat inside the bags. Mortality and reduced feeding were assessed 4 days after treatment, compared to untreated control plants.

Test [3] concerns boll weevil (Anthonomus grandis). Description: Action on boll weevil (Anthonomus grandis), microtiter plate diet test. The conditions noted are these: 120 h, egg and larval mortality after 5 days, read-out: mortality in comparison with untreated controls. The procedure: For evaluating control of boll weevil (Anthonomus grandis) the test unit consisted of 96-well-microtiter plates containing an insect diet and 5-10 A. grandis eggs.
The compounds were formulated using a solution containing 75% (v/v) water and 25% (v/v) DMSO. Different concentrations of formulated compounds were sprayed onto the insect diet at 5 μl, using a custom built micro atomizer, at two replications.
After application, microtiter plates were incubated at about 25+1° C. and about 75+5% relative humidity for 5 days. Egg and larval mortality was then visually assessed.

In test [4] the test system is Silverleaf whitefly (Bemisia argentifolii) (adults). Description: Action on silverleaf whitefly (Bemisia argentifolii) adults, sprayed cotton plants. The conditions noted are these: 72 h, 3 days after treatment, read-out: mortality in comparison with untreated controls. The procedure:
The active compounds were formulated by a Tecan liquid handler in 100% cyclohexanone as a 10,000 ppm solution supplied in tubes. The 10,000 ppm solution was serially diluted in 100% cyclohexanone to make interim solutions. These served as stock solutions for which final dilutions were made by the Tecan in 50% acetone:50% water (v/v) into 5 or 10 ml glass vials. A nonionic surfactant (Kinetic®) was included in the solution at a volume of 0.01% (v/v). The vials were then inserted into an automated electrostatic sprayer equipped with an atomizing nozzle for application to plants/insects.
Cotton plants at the cotyledon stage (one plant per pot) were sprayed by an automated electrostatic plant sprayer equipped with an atomizing spray nozzle. The plants were dried in the sprayer fume hood and then removed from the sprayer. Each pot was placed into a plastic cup and about 10 to 12 whitefly adults (approximately 3-5 days old) were introduced. The insects were collected using an aspirator and a nontoxic Tygon® tubing connected to a barrier pipette tip. The tip, containing the collected insects, was then gently inserted into the soil containing the treated plant, allowing insects to crawl out of the tip to reach the foliage for feeding. Cups were covered with a reusable screened lid. Test plants were maintained in a growth room at about 25° C. and about 20-40% relative humidity for 3 days, avoiding direct exposure to fluorescent light (24 hour photoperiod) to prevent trapping of heat inside the cup. Mortality was assessed 3 days after treatment, compared to untreated control plants.

Test [5] relates to Orchid thrips (Dichromothrips corbetti). Description: Action on orchid thrips (Dichromothrips corbetti), floral-immersion technique. The conditions noted are these: adult thrips, 72 hours after treatment, read-out: mortality in comparison with untreated controls. The procedure:
Dichromothrips corbetti adults used for bioassay were obtained from a colony maintained continuously under laboratory conditions. For testing purposes, the test compound is diluted in a 1:1 mixture of acetone:water (vol:vol), plus Kinetic® HV at a rate of 0.01% v/v.
Thrips potency of each compound was evaluated by using a floral-immersion technique. All petals of individual, intact orchid flowers were dipped into treatment solution and allowed to dry in Petri dishes. Treated petals were placed into individual re-sealable plastic along with about 20 adult thrips. All test arenas were held under continuous light and a temperature of about 28° C. for duration of the assay. After 3 days, the numbers of live thrips were counted on each petal. The percent mortality was recorded 72 hours after treatment.

The subject of test [6] is Diamond back moth (Plutella xylostella). The experiment in a line: Action on diamond back moth (Plutella xylostella), cabbage leaf dip. The conditions noted are these: foliar, 3rd instar larvae on dipped cabbage leaves, 72 hours after treatment, read-out: mortality in comparison with untreated controls. The procedure:
The active compound is dissolved at the desired concentration in a mixture of 1:1 (v/v) distilled water: acetone. Surfactant (Kinetic® HV) is added at a rate of 0.01% (v/v). The test solution is prepared at the day of use.
Leaves of cabbage were dipped in test solution and air-dried. Treated leaves were placed in petri dishes lined with moist filter paper and inoculated with ten 3rd instar larvae. Mortality was recorded 72 hours after treatment. Feeding damages were also recorded using a scale of 0-100%.

Test [7] deals with tobacco budworm (Heliothis virescens). Description: Action on tobacco budworm (Heliothis virescens), microtiter plate diet test. The conditions noted are these: 120 h, egg and larval mortality after 5 days, read-out: mortality in comparison with untreated controls. The procedure:
For evaluating control of tobacco budworm (Heliothis virescens) the test unit consisted of 96-well-microtiter plates containing an insect diet and 15-25 H. virescens eggs.
The compounds were formulated using a solution containing 75% v/v water and 25% v/v DMSO. Different concentrations of formulated compounds were sprayed onto the insect diet at 10 μl, using a custom-built micro atomizer, at two replications.
After application, microtiter plates were incubated at about 28+1° C. and about 80+5% relative humidity for 5 days. Egg and larval mortality were then visually assessed.

Structures are written as SMILES.

Results on five compounds are retold here after US12528800B2, “Pesticidal compounds” (BASF SE, priority 2018, dated 2026).

With `CC(C)c1ccccc1NC(=S)N/N=C/c1ccc(-c2cc(NC(=O)c3ccc(OC(F)(F)F)cc3)n(C)n2)cc1` [Compound C-1, N-[5-[4-[(E)-[(2-isopropylphenyl)carbamothioylhydrazono]methyl]phenyl]-2-methyl-pyrazol-3-yl]-4-(trifluoromethoxy)benzamide], the results for the mortality at 800 ppm in test [1], in test [3] and in test [7] were at least 50%, at least 75% and at least 75%, respectively. Besides, the mortality at 300 ppm in test [2] and in test [4] was at least 75% in each case. Further, the mortality at 500 ppm in test [5] and in test [6] was at least 75% each time.

On to `CC(C)c1ccccc1NC(=S)N/N=C/c1ccc(-c2cc(OCc3ccc(OC(F)(F)F)cc3)n(C)n2)cc1` [Compound C-10, 1-(2-isopropylphenyl)-3-[(E)-[4-[1-methyl-5-[[4-(trifluoromethoxy)phenyl]methoxy]pyrazol-3-yl]phenyl]methyleneamino]thiourea], for which the mortality at 300 ppm in test [2] and in test [4] was at least 75% in each case. In addition, the mortality at 800 ppm in test [3] and in test [7] was at least 75% throughout. Also, the mortality at 500 ppm in test [5] and in test [6] was at least 75% in each case.

Regarding `CCn1nc(-c2ccc(/C=N/NC(=S)Nc3ccccc3C(C)C)cc2)cc1NC(=O)c1ccc(OC(F)(F)F)cc1` [Compound C-29, N-[2-ethyl-5-[4-[(E)-[(2-isopropylphenyl)carbamothioylhydrazono]methyl]phenyl]pyrazol-3-yl]-4-(trifluoromethoxy)benzamide], the mortality – broadly, the share of the test organisms that died – at 800 ppm was at least 50% in test [1], at least 75% in test [3] and at least 75% in test [7]. The mortality at 300 ppm in test [2] was at least 75%. Also, the mortality at 500 ppm in test [5] and in test [6] was at least 75% throughout.

For `CC(C)c1ccccc1NC(=S)N/N=C/c1ccc(-c2cc(COc3ccc(OC(F)(F)F)cc3)n(C)n2)cc1` [Compound C-52, 1-(2-isopropylphenyl)-3-[(E)-[4-[1-methyl-5-[[4-(trifluoromethoxy)phenoxy]methyl]pyrazol-3-yl]phenyl]methyleneamino]thiourea], the mortality at 800 ppm in test [1] was at least 50%; in test [3], at least 75%; in test [7], at least 75%. For the same compound, the mortality at 300 ppm in test [2] and in test [4] was at least 75% throughout. Further, the mortality at 500 ppm in test [5] and in test [6] was at least 75% each time.

Take `CC(C)c1ccccc1N1C(=O)CS/C1=N\N=C\c1ccc(-c2nc(NC(=O)c3ccc(OC(F)(F)F)cc3)n(C)n2)cc1` [Compound C-64, N-[5-[4-[(E)-[(Z)-[3-(2-isopropylphenyl)-4-oxo-thiazolidin-2-ylidene]hydrazono]methyl]phenyl]-2-methyl-1,2,4-triazol-3-yl]-4-(trifluoromethoxy)benzamide]: the results for the mortality at 800 ppm in test [1], in test [3] and in test [7] were at least 50%, at least 75% and at least 75%, respectively. In addition, the mortality at 300 ppm in test [2] is at least 75%. For the same compound, the mortality at 500 ppm in test [5] and in test [6] was at least 75% in each case.
